Test results from patent US20230148005A1, “MACROCYCLIC COMPOUNDS AND USES THEREOF” (THESEUS PHARMACEUTICALS, INC., priority 2020, published 2023).
pIC50: −log10 of the molar value. Like-named read-outs stand apart in the source and are kept apart here.

Legend:
[1] = biological target: EGFR^L858R/T790M/C^797S (Homo sapiens, UniProt P00533, C797S/L858R/T790M); experiment: in vitro kinase assay (HTRF KinEASE-TK kit), LTC; type: biochemical; details: kinase inhibition
From the text: (§1) Assays using an in vitro kinase assay kit (HTRF KinEASE-TK kit) can be used to study the inhibitory activity of compounds described herein with respect to EGFR mutants such as EGFR^L858R, EGFR^L58R/T790M, and EGFR^L858R/T790M/C^797S.

[2] = biological target: EGFR^L58R/T790M (Homo sapiens, UniProt P00533, L858R/T790M); experiment: in vitro kinase assay (HTRF KinEASE-TK kit), LT; type: biochemical; details: kinase inhibition
Chain of EGFR^L58R/T790M (P00533 25-1210 T790M/L858R): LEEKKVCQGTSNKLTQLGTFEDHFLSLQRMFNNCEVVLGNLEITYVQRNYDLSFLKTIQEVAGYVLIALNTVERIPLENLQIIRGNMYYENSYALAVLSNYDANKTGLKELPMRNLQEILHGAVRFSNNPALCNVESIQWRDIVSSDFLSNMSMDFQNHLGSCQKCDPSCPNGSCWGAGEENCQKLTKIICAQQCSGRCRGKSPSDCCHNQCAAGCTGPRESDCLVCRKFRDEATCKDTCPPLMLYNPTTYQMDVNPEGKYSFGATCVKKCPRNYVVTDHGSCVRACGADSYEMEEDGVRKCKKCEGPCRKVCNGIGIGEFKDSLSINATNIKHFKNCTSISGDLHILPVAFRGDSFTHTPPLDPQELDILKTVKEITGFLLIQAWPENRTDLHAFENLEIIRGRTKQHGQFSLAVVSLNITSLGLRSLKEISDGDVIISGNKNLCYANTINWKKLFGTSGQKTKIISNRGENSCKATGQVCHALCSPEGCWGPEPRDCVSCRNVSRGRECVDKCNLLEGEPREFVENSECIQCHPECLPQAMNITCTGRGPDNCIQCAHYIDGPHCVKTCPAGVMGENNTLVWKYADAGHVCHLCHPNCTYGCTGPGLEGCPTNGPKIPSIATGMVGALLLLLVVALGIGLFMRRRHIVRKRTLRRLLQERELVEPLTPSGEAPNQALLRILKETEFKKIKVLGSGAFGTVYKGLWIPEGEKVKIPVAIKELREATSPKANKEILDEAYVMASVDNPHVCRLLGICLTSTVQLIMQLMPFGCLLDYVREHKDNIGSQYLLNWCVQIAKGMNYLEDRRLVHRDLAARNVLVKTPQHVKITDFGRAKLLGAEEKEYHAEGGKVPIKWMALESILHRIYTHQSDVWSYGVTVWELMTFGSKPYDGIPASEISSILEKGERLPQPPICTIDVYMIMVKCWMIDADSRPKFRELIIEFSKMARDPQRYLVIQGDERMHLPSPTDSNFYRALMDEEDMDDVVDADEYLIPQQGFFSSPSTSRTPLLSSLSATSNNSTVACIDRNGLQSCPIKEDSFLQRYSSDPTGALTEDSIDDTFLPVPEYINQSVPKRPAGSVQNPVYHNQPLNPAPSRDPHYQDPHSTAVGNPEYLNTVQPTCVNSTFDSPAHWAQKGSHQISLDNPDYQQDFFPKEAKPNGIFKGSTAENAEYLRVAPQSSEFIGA
From the text: as §1

[3] = biological target: EGFR^L858R (Homo sapiens, UniProt P00533, L858R); experiment: in vitro kinase assay (HTRF KinEASE-TK kit), L; type: biochemical; details: kinase inhibition
Chain of EGFR^L858R (P00533 25-1210 L858R): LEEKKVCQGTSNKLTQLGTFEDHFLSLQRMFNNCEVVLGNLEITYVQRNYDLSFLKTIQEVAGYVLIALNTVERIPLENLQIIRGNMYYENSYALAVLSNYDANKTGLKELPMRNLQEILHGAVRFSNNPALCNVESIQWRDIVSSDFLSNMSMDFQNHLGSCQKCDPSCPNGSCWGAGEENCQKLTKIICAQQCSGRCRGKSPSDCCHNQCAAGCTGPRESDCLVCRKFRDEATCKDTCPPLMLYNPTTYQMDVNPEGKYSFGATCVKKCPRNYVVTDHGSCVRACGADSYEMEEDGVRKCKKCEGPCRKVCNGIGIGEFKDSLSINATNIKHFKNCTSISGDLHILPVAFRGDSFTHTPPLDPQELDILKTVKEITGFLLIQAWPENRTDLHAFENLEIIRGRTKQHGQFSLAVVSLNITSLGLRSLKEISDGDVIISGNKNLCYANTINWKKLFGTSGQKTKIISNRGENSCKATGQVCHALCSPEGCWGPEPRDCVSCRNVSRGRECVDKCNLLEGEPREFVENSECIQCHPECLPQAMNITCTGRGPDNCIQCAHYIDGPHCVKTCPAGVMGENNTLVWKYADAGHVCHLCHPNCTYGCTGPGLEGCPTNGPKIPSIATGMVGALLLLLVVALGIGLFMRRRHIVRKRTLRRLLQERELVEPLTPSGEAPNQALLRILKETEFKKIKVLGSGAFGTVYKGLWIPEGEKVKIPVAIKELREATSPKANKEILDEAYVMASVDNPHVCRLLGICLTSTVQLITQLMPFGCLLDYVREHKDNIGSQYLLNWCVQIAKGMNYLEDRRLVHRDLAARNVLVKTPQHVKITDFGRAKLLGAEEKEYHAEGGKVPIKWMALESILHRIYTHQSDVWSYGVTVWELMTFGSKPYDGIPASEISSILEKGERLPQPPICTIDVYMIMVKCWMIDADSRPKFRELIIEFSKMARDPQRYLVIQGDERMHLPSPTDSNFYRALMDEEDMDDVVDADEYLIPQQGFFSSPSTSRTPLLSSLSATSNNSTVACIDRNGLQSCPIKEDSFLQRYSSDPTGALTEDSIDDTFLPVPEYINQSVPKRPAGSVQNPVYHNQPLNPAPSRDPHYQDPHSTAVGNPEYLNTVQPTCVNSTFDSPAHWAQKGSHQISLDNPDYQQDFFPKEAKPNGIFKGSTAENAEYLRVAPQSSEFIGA
From the text: as §1

[4] = biological target: Ba/F3 EGFR-Del19/T790M/C797S (Homo sapiens, UniProt P00533, T790M/C797S, cells depend on it, form not given); experiment: Ba/F3 viability assay (CellTiter-Glo), DTC; type: cell-based; details: anti-proliferation, read-out: BaF3 DTC IC50
Chain of Ba/F3 EGFR-Del19/T790M/C797S (P00533 with tags, fused parts or gaps DEL746-750/T790M/C797S, form open): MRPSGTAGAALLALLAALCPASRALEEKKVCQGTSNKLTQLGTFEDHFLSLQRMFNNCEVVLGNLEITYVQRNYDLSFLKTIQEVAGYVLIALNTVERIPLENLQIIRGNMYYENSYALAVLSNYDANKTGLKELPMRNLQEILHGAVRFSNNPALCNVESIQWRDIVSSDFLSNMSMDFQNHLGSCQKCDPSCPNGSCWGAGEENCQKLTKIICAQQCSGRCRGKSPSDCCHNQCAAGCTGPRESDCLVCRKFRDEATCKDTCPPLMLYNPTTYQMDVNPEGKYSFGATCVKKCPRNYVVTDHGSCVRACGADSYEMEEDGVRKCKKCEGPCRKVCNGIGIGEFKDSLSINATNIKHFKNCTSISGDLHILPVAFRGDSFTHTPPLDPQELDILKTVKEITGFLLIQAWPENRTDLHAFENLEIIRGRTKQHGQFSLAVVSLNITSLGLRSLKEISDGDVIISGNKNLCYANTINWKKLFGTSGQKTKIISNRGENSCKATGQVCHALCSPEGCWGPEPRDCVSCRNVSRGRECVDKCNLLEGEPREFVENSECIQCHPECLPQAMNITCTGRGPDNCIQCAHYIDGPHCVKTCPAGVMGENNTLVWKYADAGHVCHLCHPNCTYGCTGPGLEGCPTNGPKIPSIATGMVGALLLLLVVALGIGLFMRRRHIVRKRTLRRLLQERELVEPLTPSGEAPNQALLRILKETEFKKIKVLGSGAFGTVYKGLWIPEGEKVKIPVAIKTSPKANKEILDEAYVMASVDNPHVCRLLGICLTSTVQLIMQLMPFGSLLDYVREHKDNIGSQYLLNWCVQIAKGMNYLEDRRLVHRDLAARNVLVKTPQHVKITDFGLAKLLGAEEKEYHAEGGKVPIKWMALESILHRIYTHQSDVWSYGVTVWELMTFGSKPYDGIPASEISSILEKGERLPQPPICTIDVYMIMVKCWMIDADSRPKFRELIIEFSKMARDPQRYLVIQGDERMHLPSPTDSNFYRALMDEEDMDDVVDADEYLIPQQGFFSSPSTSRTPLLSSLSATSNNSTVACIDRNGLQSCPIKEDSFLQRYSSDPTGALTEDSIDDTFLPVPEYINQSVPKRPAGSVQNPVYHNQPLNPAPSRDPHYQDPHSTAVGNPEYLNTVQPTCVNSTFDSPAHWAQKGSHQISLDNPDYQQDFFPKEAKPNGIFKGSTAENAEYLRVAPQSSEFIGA
Outline: (§2)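 Read-out: viability signal, used as the measure of proliferation inhibition by test compounds.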

[5] = biological target: Ba/F3 EGFR-Del19/T790M (Homo sapiens, UniProt P00533, T790M, cells depend on it, form not given); experiment: Ba/F3 viability assay (CellTiter-Glo), DT; type: cell-based; details: anti-proliferation, read-out: BaF3 DT IC50
Outline: as §2

[6] = biological target: Ba/F3 EGFR-Del19/C797S (Homo sapiens, UniProt P00533, C797S, cells depend on it, form not given); experiment: Ba/F3 viability assay (CellTiter-Glo), DC; type: cell-based; details: anti-proliferation, read-out: BaF3 DC IC50
Outline: as §2

[7] = test system: Ba/F3 Parental; experiment: Ba/F3 viability assay (CellTiter-Glo), parental; type: cell-based
Outline: as §2

[8] = Mus musculus, BaF3, anti-proliferation

Chain of EGFR^L858R/T790M/C^797S (P00533 25-1210 T790M/C797S/L858R): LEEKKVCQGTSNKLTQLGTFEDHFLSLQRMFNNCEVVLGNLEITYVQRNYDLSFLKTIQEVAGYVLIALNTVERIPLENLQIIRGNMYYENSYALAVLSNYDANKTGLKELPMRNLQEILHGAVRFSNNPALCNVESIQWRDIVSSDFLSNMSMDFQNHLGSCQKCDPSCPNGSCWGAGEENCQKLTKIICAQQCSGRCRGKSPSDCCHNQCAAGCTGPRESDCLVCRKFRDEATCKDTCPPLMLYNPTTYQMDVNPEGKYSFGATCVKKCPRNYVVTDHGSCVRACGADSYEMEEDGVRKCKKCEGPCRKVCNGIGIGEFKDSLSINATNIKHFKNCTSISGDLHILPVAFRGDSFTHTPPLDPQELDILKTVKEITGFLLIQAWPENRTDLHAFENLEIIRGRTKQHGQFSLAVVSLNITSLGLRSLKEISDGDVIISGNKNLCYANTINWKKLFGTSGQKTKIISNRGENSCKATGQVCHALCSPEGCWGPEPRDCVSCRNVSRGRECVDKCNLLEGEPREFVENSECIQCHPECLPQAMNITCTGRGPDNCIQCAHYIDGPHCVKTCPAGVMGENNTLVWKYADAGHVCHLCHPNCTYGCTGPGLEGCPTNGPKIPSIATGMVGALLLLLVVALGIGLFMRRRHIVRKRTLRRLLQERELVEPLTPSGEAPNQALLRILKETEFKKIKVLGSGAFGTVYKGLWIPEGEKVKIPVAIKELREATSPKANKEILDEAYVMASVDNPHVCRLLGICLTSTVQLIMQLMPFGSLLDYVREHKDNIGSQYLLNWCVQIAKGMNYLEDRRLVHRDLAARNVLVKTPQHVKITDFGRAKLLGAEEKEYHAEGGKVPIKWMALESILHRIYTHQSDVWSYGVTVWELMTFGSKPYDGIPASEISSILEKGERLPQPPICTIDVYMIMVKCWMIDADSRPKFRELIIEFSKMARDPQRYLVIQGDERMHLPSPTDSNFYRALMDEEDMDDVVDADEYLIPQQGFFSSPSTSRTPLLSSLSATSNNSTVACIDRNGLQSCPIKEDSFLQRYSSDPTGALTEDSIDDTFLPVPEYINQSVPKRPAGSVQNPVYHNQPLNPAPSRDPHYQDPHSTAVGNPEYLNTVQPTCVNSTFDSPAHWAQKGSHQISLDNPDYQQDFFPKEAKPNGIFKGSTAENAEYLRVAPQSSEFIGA

Row | Structure (SMILES) | pIC50 [1] | pIC50 [2] | pIC50 [3] | GI50 [4] [nM] | GI50 [5] [nM] | GI50 [6] [nM] | pIC50 [7, 8] | pIC50 ([7]; anti-proliferation, read-out: BaF3 parental IC50)
1 | C[C@H]1CCOc2c(cnn2C)-c2nccc(n2)Nc2cc3c(cn2)c(N2CC[C@H](N(C)CCF)C2)nn31 [(170)] | > 8.00 | > 8.00 | > 8.00 | < 10 | 10 to 100 | 10 to 100 | 6.00 to 7.00 | –
2 | C[C@H]1CCOc2c(cnn2C)-c2nccc(n2)Nc2cc3c(cn2)c(-c2ccc(CN4CCN(C)CC4)cc2)nn31 [(172)] | > 8.00 | > 8.00 | > 8.00 | < 10 | < 10 | < 10 | 7.00 to 8.00 | –
3 | C[C@H]1CCOc2c(cnn2C)-c2nccc(n2)Nc2cc3c(cn2)c(-c2cccc(N4CCC(N5CCN(C)CC5)CC4)c2)nn31 [(173)] | > 8.00 | > 8.00 | > 8.00 | < 10 | < 10 | < 10 | 6.00 to 7.00 | –
4 | Cc1nc(-c2nn3c4cc(ncc24)Nc2ccnc(n2)-c2cnn(C)c2OCC[C@@H]3C)sc1CN1CCOCC1 [(174)] | > 8.00 | > 8.00 | > 8.00 | < 10 | < 10 | < 10 | 6.00 to 7.00 | –
5 | C[C@H]1CCOc2c(cnn2C)-c2nccc(n2)Nc2cc3c(cn2)c(N2CC[C@@H](CN(C)CCF)C2)nn31 [(175)] | > 8.00 | > 8.00 | > 8.00 | < 10 | < 10 | < 10 | 7.00 to 8.00 | –
6 | C[C@H]1CCOc2c(cnn2C)-c2nccc(n2)Nc2cc3c(cn2)c(-c2ccc(CN(C)C)cc2)nn31 [(176)] | > 8.00 | > 8.00 | > 8.00 | < 10 | < 10 | 10 to 100 | 6.00 to 7.00 | –
7 | C[C@H]1CCOc2c(cnn2C)-c2nccc(n2)Nc2cc3c(cn2)c(-c2ccc(CN(C)CCF)n2C)nn31 [(184), N-[[5-[(16S)-11,16-dimethyl-13-oxa-2,6,10,11,17,18,22,25-octazapentacyclo[15.5.2.1^3,7.0^8,12.0^20,24]pentacosa-1(22),3,5,7(25),8(12),9,18,20,23-nonaen-19-yl]-1-methyl-pyrrol-2-yl]methyl]-2-fluoro-N-methyl-ethanamine] | > 8.00 | > 8.00 | > 8.00 | < 10 | < 10 | 10 to 100 | 6.00 to 7.00 | –
8 | C[C@H]1CCOc2c(cnn2C)-c2nccc(n2)Nc2cc3c(cn2)c(-c2cc4c(n2C)CCCN(C)C4)nn31 [(185)] | > 8.00 | > 8.00 | > 8.00 | 10 to 100 | 10 to 100 | 10 to 100 | 6.00 to 7.00 | –
9 | C[C@H]1CCOc2c(cnn2C)-c2nccc(n2)Nc2cc3c(cn2)c(-c2ccc(CN4CC[C@@H](N(C)C)C4)n2C)nn31 [(186)] | > 8.00 | > 8.00 | > 8.00 | < 10 | < 10 | < 10 | 6.00 to 7.00 | –
10 | C[C@H]1CCOc2c(cnn2C)-c2nccc(n2)Nc2cc3c(cn2)c(-c2ccc(CN4CC[C@H](N(C)C)C4)n2C)nn31 [(187)] | > 8.00 | > 8.00 | > 8.00 | < 10 | < 10 | < 10 | 6.00 to 7.00 | –
11 | CC(C)NCc1ccc(-c2nn3c4cc(ncc24)Nc2ccnc(n2)-c2cnn(C)c2OCC[C@@H]3C)n1C [(188)] | > 8.00 | > 8.00 | > 8.00 | < 10 | < 10 | < 10 | 6.00 to 7.00 | –
12 | CC(C)N(C)Cc1ccc(-c2nn3c4cc(ncc24)Nc2ccnc(n2)-c2cnn(C)c2OCC[C@@H]3C)n1C [(189)] | > 8.00 | > 8.00 | > 8.00 | < 10 | < 10 | < 10 | 6.00 to 7.00 | –
13 | C[C@H]1CCOc2c(cnn2C)-c2nccc(n2)Nc2cc3c(cn2)c(-c2ccc(CN4CCN(CCCF)CC4)n2C)nn31 [(190)] | > 8.00 | > 8.00 | > 8.00 | < 10 | < 10 | < 10 | 6.00 to 7.00 | –
14 | CCn1c(CN(C)C)ccc1-c1nn2c3cc(ncc13)Nc1ccnc(n1)-c1cnn(C)c1OCC[C@@H]2C [(191)] | > 8.00 | > 8.00 | > 8.00 | < 10 | 10 to 100 | < 10 | 6.00 to 7.00 | –
15 | C[C@H]1CCOc2c(cnn2C)-c2nccc(n2)Nc2cc3c(cn2)c(-c2ccc(CN(C)CCCF)n2C)nn31 [(192)] | > 8.00 | > 8.00 | > 8.00 | < 10 | < 10 | < 10 | 6.00 to 7.00 | –
16 | C[C@H]1CCOc2c(cnn2C)-c2nccc(n2)Nc2cc3c(cn2)c(-c2ccc(CN4CCN(CCF)CC4)n2C)nn31 [(193)] | > 8.00 | > 8.00 | > 8.00 | < 10 | < 10 | < 10 | 6.00 to 7.00 | –

Continued, in another order:

Row | pIC50 [1] | pIC50 [2] | pIC50 [3] | Structure (SMILES) | GI50 [4] [nM] | GI50 [5] [nM] | GI50 [6] [nM] | pIC50 [7, 8] | pIC50 ([7]; anti-proliferation, read-out: BaF3 parental IC50)
17 | > 8.00 | > 8.00 | > 8.00 | Cc1nc(-c2nn3c4cc(ncc24)Nc2ccnc(n2)-c2cnn(C)c2OCC[C@@H]3C)sc1CN(C)C [(171)] | 10 to 100 | 10 to 100 | 10 to 100 | 6.00 to 7.00 | –
18 | > 8.00 | > 8.00 | 7.00 to 8.00 | C[C@H]1CCOc2c(cnn2C)-c2nccc(n2)Nc2cc3c(cn2)c(-c2cccc(CN4CCOCC4)c2)nn31 [(177)] | < 10 | 10 to 100 | 10 to 100 | 6.00 to 7.00 | –
19 | > 8.00 | > 8.00 | 7.00 to 8.00 | C[C@H]1CCOc2c(cnn2C)-c2nccc(n2)Nc2cc3c(cn2)c(N2CC[C@H](N(C)C)C2)nn31 [(178)] | < 10 | 10 to 100 | 10 to 100 | 6.00 to 7.00 | –
20 | > 8.00 | > 8.00 | > 8.00 | C[C@H]1CCOc2c(cnn2C)-c2nccc(n2)Nc2cc3c(cn2)c(N2CC[C@@H](N(C)CCF)C2)nn31 [(179)] | < 10 | < 10 | 10 to 100 | 6.00 to 7.00 | –
21 | > 8.00 | > 8.00 | 7.00 to 8.00 | C[C@H]1CCOc2c(cnn2C)-c2nccc(n2)Nc2cc3c(cn2)c(N2CC[C@H](N(C)CCCF)C2)nn31 [(180)] | < 10 | 10 to 100 | 10 to 100 | 6.00 to 7.00 | –
22 | > 8.00 | > 8.00 | > 8.00 | C[C@H]1CCOc2c(cnn2C)-c2nccc(n2)Nc2cc3c(cn2)c(N2CC[C@@H](N(C)C)C2)nn31 [(181)] | 10 to 100 | 10 to 100 | 10 to 100 | – | 6.00 to 7.00
23 | > 8.00 | > 8.00 | 7.00 to 8.00 | C[C@H]1CCOc2c(cnn2C)-c2nccc(n2)Nc2cc3c(cn2)c(-c2cccc(CN(C)C)n2)nn31 [(182)] | < 10 | 10 to 100 | 10 to 100 | 6.00 to 7.00 | –
24 | > 8.00 | > 8.00 | > 8.00 | C[C@H]1CCOc2c(cnn2C)-c2nccc(n2)Nc2cc3c(cn2)c(-c2cc(CN(C)C)ccn2)nn31 [(183)] | < 10 | 10 to 100 | 10 to 100 | 6.00 to 7.00 | –
